Reference: US20210001138A1, “ELECTROSTATIC DRUG DELIVERY” (Nano Hesgarsazan Salamat Arya, priority 2019, published 2021)

Test system: MC4L2 mice tumor
Experiment: Sonography of MC4L2 mice tumor after injection of the free drug, with or without electrostatic field
Details: for trace of tumor after the second injection period: every 3 days
Experimental: Here, three injection periods of Cisplatin were carried out every 3 days for a group of mice having a MC4L2 mice tumor as an example of triple-positive breast cancer. About 20 mg/kg of Cisplatin was applied for a Control sample with a MC4L2 mice tumor without applying an electrostatic field.
Here, four injection periods of Doxorubicin were carried out every 3 days for a group of mice having a MC4L2 mice tumor as an example of triple-positive breast cancer. About 10 mg/kg of Doxorubicin was applied for a Control sample with a MC4L2 mice tumor without applying an electrostatic field. […] All sonography images were taken after about 10 days of treatments, and all drug injections were done every about 3 days.

| SMILES | tumor outcome in sonography images (about 5 mg/kg Cisplatin followed by electrostatic field, FIG. 5B) | trace of tumor after the second injection period (about 5 mg/kg Cisplatin per period, then DC electrostatic field -60 V to -120 V via conductive patch, sample mouse No. 1) | reduction in tumor volume (about 20 mg/kg Cisplatin, without electrostatic field, FIG. 4B vs FIG. 4A) | tumor outcome in sonography images (about 1 mg/kg Doxorubicin followed by electrostatic field, sonography after about 10 days, FIG. 9B) | trace of tumor after the second injection period (about 1 mg/kg Doxorubicin per period, then DC electrostatic field 60 V to 120 V via conductive patch, sample mouse No. 2) |
| --- | --- | --- | --- | --- | --- |
| N.N.[Cl][Pt][Cl] [Cisplatin] | removed completely | no observable trace of tumor | about 60% | – | – |
| COc1cccc2c1C(=O)c1c(O)c3c(c(O)c1C2=O)C[C@@](O)(C(=O)CO)C[C@@H]3O[C@H]1C[C@H](N)[C@H](O)[C@H](C)O1 [Doxorubicin] | – | – | – | removed completely | no observable trace of tumor |
